Experiments:
[1] = Moisture sorption / deliquescence of the salts at relative humidity; assay type: physicochemical
[2] = Intrinsic dissolution rate, low-volume rotating disc method; assay type: physicochemical; conditions: salt made at 1 g scale from ethanol; disc 0.07 cm^2, 500 rpm, 50 mL USP Phosphate buffer pH 6.8 at 37° C
Experimental: The salt manufactured at 1 g scale from ethanol was further investigated for its intrinsic dissolution rate and compared to the free base of 4-(5-{(1R)-1-[5-(3-chlorophenyl)isoxazol-3-yl]ethoxy}-4-methyl-4H-1,2,4-triazol-3-yl)pyridine. […] Dissolution rates of the base and salt were measured with a low-volume rotating disc method. Discs were compressed from pure compound and centrically mounted in a disc holder with an exposed area of 0.07 cm^2. The disc holder rotated at 500 rpm immersed in 50 mL USP Phosphate buffer pH 6.8 at 37° C. The compound was analysed UV-Online by a Spectrophotometer with a flow cell and a peristaltic pump with continuous circulation.

Row | Structure (SMILES) | relative humidity at which the salt deliquesces ([1]; salt manufactured again from ethanol at 68° C) | relative humidity at which the salt deliquesces ([1]; salt recrystallised from the oiled salt in ethanol) | intrinsic dissolution rate of the salt as compared to the free base [2] [times] | relative humidity at which moisture sorption is increased ([1]; first batch from ethanol)
1 | C[C@@H](Oc1nnc(-c2ccncc2)n1C)c1cc(-c2cccc(Cl)c2)on1.O=S(=O)(O)O [Example 18, 4-(5-{(1R)-1-[5-(3-chlorophenyl)isoxazol-3-yl]ethoxy}-4-methyl-4H-1,2,4-triazol-3-yl)pyridine sulphate] | 70-80 % RH | 60-70 % relative humidity | – | –
2 | C[C@@H](Oc1nnc(-c2ccncc2)n1C)c1cc(-c2cccc(Cl)c2)on1.Cl [Example 17, 4-(5-{(1R)-1-[5-(3-chlorophenyl)isoxazol-3-yl]ethoxy}-4-methyl-4H-1,2,4-triazol-3-yl)pyridine hydrochloride] | – | – | 1000 | 90-95 % RH

Source: patent publication US20080227824A1, “5-(Phenylisoxazolylethoxy) - Triazol- 3 -Yl Substituted Pyridine Compounds for the Treatment of Neurological, Psychiatric or Pain Disorders” (Astrazeneca AB, priority 2005, published 2008)
